These are literature values, as cited in patent US20110105442A2, “MEANS AND METHODS FOR CONTROLLING COMMENSALES” (Biotechnology Research And Information Network, AG …, priority 2008, published 2011).

Where two headings read alike, the source gives them in different places.

The series deals with certain Gram-positive and Gram-negative bacteria including commensales of the skin. The settings on record: Malmstrøm et al., 2002, biofilm not assayed.

As to `C/C=C/C1=CC(=O)[C@H](O)[C@H]1O` (stereo in doubt) [Terrein, 4,5-Dihydroxy-3-(1-propenyl)-2-cyclopenten-1-one], the antibacterial activity result is “weak antibacterial activity”. For the same compound, the antibacterial activity entry (listed as terrein) is listed as “weak to negligible activity”.
